Experimental data reported in the NIST ThermoML archive (doi:10.1021/je900550v).

Details: 101.33 kPa, Liquid; for speed of sound: Pulse-echo method; for mass density: Vibrating tube method

CC(C)C(=O)[O-].C[NH2+]CCO [2-hydroxy-N-methylethanaminium isobutyrate]
Details	mass density [kg/m3]	speed of sound [m/s]	viscosity [mPa·s]
308.15 K	1036.92	1583.1	–
308.4 K	1036.77	1582.4	–
308.65 K	1036.6	1581.7	–
308.9 K	1036.44	1581	–
309.15 K	1036.28	1580.3	–
309.4 K	1036.11	1579.6	–
309.65 K	1035.95	1578.8	–
309.9 K	1035.79	1578.2	–
310.15 K	1035.62	1577.5	–
310.4 K	1035.46	1576.7	–
310.65 K	1035.29	1576	–
310.91 K	1035.13	1575.3	–
311.16 K	1034.97	1574.6	–
311.4 K	1034.81	1573.9	–
311.65 K	1034.64	1573.2	–
311.91 K	1034.48	1572.5	–
312.16 K	1034.32	1571.8	–
312.41 K	1034.15	1571.1	–
312.66 K	1033.99	1570.4	–
312.91 K	1033.82	1569.7	–
313.15 K	–	–	75.78
313.16 K	1033.66	1569	–
313.4 K	1033.49	1568.3	–
313.66 K	1033.33	1567.5	–
313.9 K	1033.16	1566.8	–
314.15 K	1033	1566.1	–
314.4 K	1032.84	1565.4	–
314.65 K	1032.67	1564.7	–
314.9 K	1032.51	1564	–
315.15 K	1032.35	1563.3	–
315.41 K	1032.18	1562.6	–
315.65 K	1032.01	1561.9	–
315.91 K	1031.85	1561.2	–
316.16 K	1031.68	1560.5	–
316.41 K	1031.52	1559.8	–
316.66 K	1031.35	1559.1	–
316.91 K	1031.18	1558.4	–
317.16 K	1031.02	1557.7	–
317.4 K	1030.86	1557	–
317.66 K	1030.69	1556.2	–
317.91 K	1030.53	1555.5	–
318.15 K	–	–	60.1
318.16 K	1030.36	1554.8	–
318.41 K	1030.19	1554.1	–
318.65 K	1030.03	1553.4	–
318.9 K	1029.87	1552.7	–
319.16 K	1029.7	1552	–
319.41 K	1029.53	1551.3	–
319.65 K	1029.37	1550.6	–
319.91 K	1029.2	1549.9	–
320.16 K	1029.03	1549.2	–
320.41 K	1028.87	1548.4	–
320.65 K	1028.7	1547.7	–
320.91 K	1028.54	1547	–
321.15 K	1028.37	1546.3	–
321.41 K	1028.2	1545.6	–
321.66 K	1028.03	1544.9	–
321.9 K	1027.87	1544.2	–
322.15 K	1027.7	1543.4	–
322.41 K	1027.54	1542.7	–
322.65 K	1027.37	1542	–
322.91 K	1027.2	1541.3	–
323.15 K	–	–	47.96
323.16 K	1027.03	1540.6	–
323.41 K	1026.86	1539.9	–
323.65 K	1026.69	1539.2	–
323.91 K	1026.53	1538.5	–
324.16 K	1026.36	1537.7	–
324.41 K	1026.19	1537	–
324.65 K	1026.03	1536.3	–
324.9 K	1025.86	1535.6	–
325.16 K	1025.69	1534.9	–
325.4 K	1025.52	1534.2	–
325.66 K	1025.36	1533.5	–
325.9 K	1025.19	1532.8	–
326.16 K	1025.02	1532.1	–
326.41 K	1024.85	1531.4	–
326.66 K	1024.68	1530.7	–
326.9 K	1024.52	1529.9	–
327.16 K	1024.34	1529.2	–
327.4 K	1024.18	1528.5	–
327.66 K	1024.01	1527.8	–
327.9 K	1023.84	1527.1	–
328.15 K	1023.67	1526.4	–
328.41 K	1023.5	1525.7	–
328.66 K	1023.33	1524.9	–
328.9 K	1023.16	1524.2	–
329.16 K	1022.99	1523.5	–
329.4 K	1022.82	1522.8	–
329.65 K	1022.65	1522	–
329.9 K	1022.48	1521.3	–
330.16 K	1022.32	1520.6	–
330.41 K	1022.14	1519.9	–
330.66 K	1021.98	1519.1	–
330.91 K	1021.81	1518.4	–
331.16 K	1021.63	1517.7	–
331.41 K	1021.47	1517	–
331.66 K	1021.29	1516.2	–
331.91 K	1021.13	1515.5	–
332.16 K	1020.95	1514.8	–
332.41 K	1020.78	1514.1	–
332.66 K	1020.61	1513.4	–
332.91 K	1020.44	1512.7	–
333.16 K	1020.27	1511.9	–
333.41 K	1020.1	1511.2	–
333.66 K	1019.93	1510.5	–
333.91 K	1019.76	1509.8	–
334.16 K	1019.59	1509.1	–
334.41 K	1019.42	1508.3	–
334.66 K	1019.24	1507.6	–
334.91 K	1019.07	1506.9	–
335.16 K	1018.9	1506.2	–
335.41 K	1018.73	1505.5	–
335.66 K	1018.56	1504.7	–
335.91 K	1018.38	1504	–
336.16 K	1018.22	1503.3	–
336.41 K	1018.04	1502.6	–
336.66 K	1017.87	1501.9	–
336.9 K	1017.7	1501.2	–
337.16 K	1017.53	1500.4	–
337.4 K	1017.35	1499.7	–
337.66 K	1017.18	1499	–
337.9 K	1017.01	1498.3	–
338.15 K	1016.84	1497.7	–
